# Data published in the supplement of paper PMC10307832.
# Columns and labels:
# Assay in all cases: relative viability (nuclei count vs DMSO), 5 days (fraction); higher = more cells survive
# IU1-47 + Dasatinib = compound: CC1=CC(=C(N1C2=CC=C(C=C2)Cl)C)C(=O)CN3CCCCC3 [IU1-47] + Cc1nc(Nc2ncc(C(=O)Nc3c(C)cccc3Cl)s2)cc(N2CCN(CCO)CC2)n1 [Dasatinib] (partner 0.075 µM)
# Summary of the method: (§1)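 For relative viability, nuclei counts in treated wells were divided by those in vehicle wells. Lung cancer cell lines had been pin-tool dosed in 1536-well plates the day after seeding and cultured for 5 days, then fixed and stained in one step (final 0.05% Triton X-100, 1% formaldehyde, 1 ug/ml Hoechst) and imaged at 4×. Doses were one drug alone or a fixed anchor-drug dose plus five library-drug doses (not always all listed) in √10 steps, and values are duplicate-plate medians.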
# IU1-47 + Alpelisib = compound: CC1=CC(=C(N1C2=CC=C(C=C2)Cl)C)C(=O)CN3CCCCC3 [IU1-47] + Cc1nc(NC(=O)N2CCC[C@H]2C(N)=O)sc1-c1ccnc(C(C)(C)C(F)(F)F)c1 [Alpelisib] (partner 2 µM)
# Summary of the method: as §1
# FG-4592 + Phenformin = compound: Cc1nc(C(=O)NCC(=O)O)c(O)c2ccc(Oc3ccccc3)cc12 [FG-4592] + N=C(N)NC(=N)NCCc1ccccc1 [Phenformin] (partner 250 µM)
# Summary of the method: as §1
# FG-4592 + Foretinib = compound: Cc1nc(C(=O)NCC(=O)O)c(O)c2ccc(Oc3ccccc3)cc12 [FG-4592] + COc1cc2c(Oc3ccc(NC(=O)C4(C(=O)Nc5ccc(F)cc5)CC4)cc3F)ccnc2cc1OCCCN1CCOCC1 [Foretinib] (partner 0.25 µM)
# Summary of the method: as §1
Cell Line,relative viability (IU1-47 + Dasatinib; first compound 0.08 µM),relative viability (IU1-47 + Dasatinib; first compound 0.253 µM),relative viability (IU1-47 + Dasatinib; first compound 0.8 µM),relative viability (IU1-47 + Dasatinib; first compound 2.53 µM),relative viability (IU1-47 + Dasatinib; first compound 8 µM),relative viability (IU1-47 + Alpelisib; first compound 0.08 µM),relative viability (IU1-47 + Alpelisib; first compound 0.253 µM),relative viability (IU1-47 + Alpelisib; first compound 0.8 µM),relative viability (IU1-47 + Alpelisib; first compound 2.53 µM),relative viability (IU1-47 + Alpelisib; first compound 8 µM),relative viability (FG-4592 + Phenformin; first compound 0.08 µM),relative viability (FG-4592 + Phenformin; first compound 0.253 µM),relative viability (FG-4592 + Phenformin; first compound 0.8 µM),relative viability (FG-4592 + Phenformin; first compound 2.53 µM),relative viability (FG-4592 + Phenformin; first compound 8 µM),relative viability (FG-4592 + Foretinib; first compound 0.08 µM),relative viability (FG-4592 + Foretinib; first compound 0.253 µM),relative viability (FG-4592 + Foretinib; first compound 0.8 µM),relative viability (FG-4592 + Foretinib; first compound 2.53 µM),relative viability (FG-4592 + Foretinib; first compound 8 µM)
HCC-78,0.378,0.389,0.324,0.373,0.336,0.387,0.319,0.391,0.327,0.294,0.683,0.621,0.809,0.723,0.716,0.556,0.561,0.52,0.541,0.576
HCC-366,0.679,0.694,0.621,0.689,0.584,0.479,0.424,0.524,,0.231,0.554,0.608,0.626,0.615,0.599,0.926,0.844,0.956,0.994,0.863
HCC-827,0.345,0.366,0.301,0.288,0.387,1.08,1.05,0.91,1.1,0.905,0.37,0.376,0.38,0.367,0.401,1.06,0.899,1.04,1.03,1.06
HOP-62,0.673,0.652,0.709,0.531,0.564,1.16,1.21,1.05,1.11,1.01,0.601,0.654,0.672,0.657,0.665,1.13,1.03,1.12,1.05,0.986
IA-LM,,,,,,0.738,0.595,0.854,0.679,0.526,,,,,,1.19,1.14,1.18,1.14,1.08
LC-2-ad,0.466,0.524,0.523,0.491,0.42,0.897,0.951,0.919,0.973,0.767,0.571,0.541,,0.527,0.658,0.88,0.838,,0.789,0.877
LCLC-97TM1,0.98,0.971,1.03,0.841,0.776,0.276,0.248,0.249,,0.242,0.415,0.385,0.44,0.423,0.426,0.9,0.901,0.876,0.887,0.866
LCLC-103H,0.49,0.471,0.491,0.465,0.345,0.854,0.989,0.983,0.914,1.05,0.3,0.325,0.248,0.294,0.319,0.716,0.671,0.632,0.799,0.769
LK-2,0.221,0.185,0.264,0.24,0.28,1.13,1.23,1.63,0.997,0.628,0.365,0.449,,0.33,0.264,1.17,0.95,,1.19,0.993
